The conditions of data set [1]: cited from earlier work.
The subject of data set [2] is Caco-2 monolayers. In words: Caco-2 monolayer drug transport assay. The settings on record: Fig. 6; 2 h; LC-MS. On the technique in general: Caco-2 cells form a polarised layer with tight junctions and transporters.
Data set [3] deals with Caco-2 monolayers.
Data set [4] relates to Caco-2 monolayers. The settings on record: standard Caco-2 assay on collagen type-I; cited from earlier work.

Like-named read-outs stand apart in the source and are kept apart here.

For `C[C@@H]1C[C@H]2[C@@H]3CCC4=CC(=O)C=C[C@]4(C)[C@@]3(F)[C@@H](O)C[C@]2(C)[C@@]1(O)C(=O)CO` [dexamethasone], in data set [1], the in vivo absorption is reported as above 85%.
Take `NC(N)=Nc1nc(CSCCC(N)=NS(N)(=O)=O)cs1` [famotidine]: the in vivo absorption in data set [1] is listed as 35%.
In the case of `CC(C)(C)NCC(O)COc1cccc2c1CC(O)C(O)C2` (stereo not shown) [nadolol], in data set [1], the in vivo absorption is listed as 45%. Further, the “Papp for cells on eECM with decreased CBD and decreased stiffness compared to cells grown on collagen” value in the data set on Caco-2 monolayers [2] is on record as “significantly higher”.
As for `CNC(=C[N+](=O)[O-])NCCSCc1ccc(CN(C)C)o1` [ranitidine], in the data set with Caco-2 monolayers [3], the “Papp for cells on eECM with decreased CBD and decreased stiffness compared to cells grown on collagen” value is “significantly higher”. The “absorption predicted by the Caco-2 assay” value in the data set with Caco-2 monolayers [4] is listed as “little to no absorption”. Further, the in vivo absorption in data set [1] is given as 51%.

The values are drawn from paper PMC5572671 (Biomaterials, 2017).
